According to the NIST ThermoML archive (doi:10.1021/acs.jced.5b00893):
± gives the expanded uncertainty stated by the source.

settings: 293.15 K; 101.33 kPa; Liquid; Vibrating tube method

Row | Compound | mass density [kg/m3]
1 | CN1CCCN(C)C1=O [1,3-dimethyl-3,4,5,6-tetrahydro-2(1H)-pyrimidinone] | 1065 ± 2
2 | CCCCOC(=O)C(C)O (centres undefined) [butyl 2-hydroxypropanoate] | 982 ± 2
3 | CN1CCN(C)C1=O [1,3-dimethyl-2-imidazolidinone] | 1058 ± 2
4 | O=C1CCCO1 [γ-butyrolactone] | 1129 ± 2
